In patent publication US12173018B2, “Penicillin-binding protein inhibitors” (priority 2018, dated 2024):
≈ marks a conversion by molar mass, not a printed value. Like-named read-outs stand apart in the source and are kept apart here.

How the values were obtained:
N. gonorrhoeae WHO F = test: Liquid broth MIC, N. gonorrhoeae WHO F; format: cell-based; conditions: Neisseria gonorrhoeae; N. gonorrhoeae WHO F, liquid broth; read-out: Minimum Inhibitory Concentration, N. gonorrhoeae WHO F
Summary of the method: (§1)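 Growth inhibition was scored by eye as the lowest compound concentration free of bacterial growth. Cultures from Kellogg's-supplemented GC agar, diluted to 5×10^5 CFU/mL, were exposed to serially diluted compound for 40-42 h at 36° C under 5% CO2.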

E. coli ATCC 25922 = test: Broth microdilution MIC, E. coli ATCC 25922; format: cell-based; conditions: Escherichia coli
Summary of the method: (§2)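 Strains are tested by standard CLSI broth microdilution. Log-phase cells, diluted by OD600 to 5×10^5 CFU/mL, meet 2-fold compound series and incubate 16-20 hours at 37° C before the lowest growth-free concentration is recorded.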

K. pneumoniae UMM = test: microbe, parasite or virus in culture; format: cell-based; conditions: Klebsiella pneumoniae; K. pneumoniae UMM producing SHV-5 and KPC-2; read-out: MIC K. pneumoniae UMM
Summary of the method: as §2

K. pneumoniae SI-117 = test: microbe, parasite or virus in culture; format: cell-based; conditions: Klebsiella pneumoniae, SI117, read-out: MIC K. pneumoniae SI-117
Summary of the method: as §2

N. gonorrhoeae FA19 = test: Liquid broth MIC, N. gonorrhoeae FA19; format: cell-based; conditions: Neisseria gonorrhoeae; N. gonorrhoeae FA19, liquid broth; read-out: Minimum Inhibitory Concentration, N. gonorrhoeae FA19
Summary of the method: as §1

E. coli PBP3 = E. coli PBP3 (Escherichia coli (strain K12), UniProt P0AD68); test: E. coli PBP3 Bocillin-FL fluorescence polarization competition binding assay
Summary of the method: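 Competition against 0.1 μM Bocillin-FL for binding to 1.5 μM purified protein, read by fluorescence polarization for 60 min. Compounds tested from 0 to 1000 μM; EC50 taken as the concentration reducing probe binding.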

N. gonorrhoeae FA1090 = test: Liquid broth MIC, N. gonorrhoeae FA1090; format: cell-based; conditions: Neisseria gonorrhoeae; N. gonorrhoeae FA1090, liquid broth; read-out: Minimum Inhibitory Concentration, N. gonorrhoeae FA1090
Summary of the method: as §1

[1] = ATCC25922, E. coli ATCC 25922, broth microdilution, read-out: MIC E. coli 25922
[2] = fluorescence polarization competition binding with Bocillin-FL, read-out: E. coli K12 PBP3 Potency
[3] = ATCC25922, read-out: MIC E. coli 25922

Sequence of E. coli PBP3 (P0AD68 whole entry): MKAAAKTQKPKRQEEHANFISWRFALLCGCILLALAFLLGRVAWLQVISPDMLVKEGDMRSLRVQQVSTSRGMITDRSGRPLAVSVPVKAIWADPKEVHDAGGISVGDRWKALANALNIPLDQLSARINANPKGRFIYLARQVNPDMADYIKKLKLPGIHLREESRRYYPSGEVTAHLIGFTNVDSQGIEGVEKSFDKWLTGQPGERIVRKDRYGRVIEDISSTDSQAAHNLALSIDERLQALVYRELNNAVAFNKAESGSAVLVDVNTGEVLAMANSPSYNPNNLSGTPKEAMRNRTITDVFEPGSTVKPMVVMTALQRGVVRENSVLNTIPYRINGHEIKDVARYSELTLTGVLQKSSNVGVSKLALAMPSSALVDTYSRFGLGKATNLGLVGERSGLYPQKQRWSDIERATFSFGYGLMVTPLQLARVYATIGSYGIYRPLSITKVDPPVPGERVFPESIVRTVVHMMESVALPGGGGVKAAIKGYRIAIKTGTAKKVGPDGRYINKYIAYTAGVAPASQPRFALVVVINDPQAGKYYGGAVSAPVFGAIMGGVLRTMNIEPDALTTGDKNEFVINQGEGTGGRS

| SMILES | MIC (N. gonorrhoeae WHO F) [µg/mL] | MIC (E. coli ATCC 25922; [1]) [µg/mL] | MIC (K. pneumoniae UMM) [µg/mL] | MIC (K. pneumoniae SI-117) [µg/mL] | MIC (N. gonorrhoeae FA19) [µg/mL] | EC50 (E. coli PBP3) [µM] | MIC (N. gonorrhoeae FA1090) [µg/mL] | EC50 (E. coli PBP3; [2]) [µM] | MIC (E. coli ATCC 25922; [3]) [µg/mL] |
| --- | --- | --- | --- | --- | --- | --- | --- | --- | --- |
| CCN1CCN(C(=O)NC(C(=O)N[C@H]2Cc3ccc(F)c(C(=O)O)c3OB2O)c2ccc(S(N)(=O)=O)cc2)C(=O)C1=O (stereo partly drawn) [Example 181, (3R)-3-(2-(4-ethyl-2,3-dioxopiperazine-1-carboxamido)-2-(4-sulfamoylphenyl)acetamido)-7-fluoro-2-hydroxy-3,4-dihydro-2H-benzo[e][1,2]oxaborinine-8-carboxylic acid] | 0.25 to 0.5 (≈ 0.413 to 0.826 µM) | > 128 | 32 to 64 | > 128 | 4 to 8 (≈ 6.61 to 13.2 µM) | 30 to 500 | 1 to 2 (≈ 1.65 to 3.3 µM) | – | – |
| NS(=O)(=O)c1ccc(C(NC(=O)N2CCN(CCF)C(=O)C2=O)C(=O)N[C@H]2Cc3ccc(F)c(C(=O)O)c3OB2O)cc1 (stereo partly drawn) [Example 182, (3R)-7-fluoro-3-(2-(4-(2-fluoroethyl)-2,3-dioxopiperazine-1-carboxamido)-2-(4-sulfamoylphenyl)acetamido)-2-hydroxy-3,4-dihydro-2H-benzo[e][1,2]oxaborinine-8-carboxylic acid] | 1 to 2 (≈ 1.6 to 3.21 µM) | > 128 | 32 to 64 | > 128 | 4 to 8 (≈ 6.42 to 12.8 µM) | 30 to 500 | 1 to 2 (≈ 1.6 to 3.21 µM) | – | – |
| O=C(O)c1c(F)ccc2c1OB(O)[C@@H](NC(=O)C(NC(=O)N1CCN(CCF)C(=O)C1=O)c1ncc(O)cc1F)C2 (stereo partly drawn) [Example 183, (3R)-7-fluoro-3-(2-(3-fluoro-5-hydroxypyridin-2-yl)-2-(4-(2-fluoroethyl)-2,3-dioxopiperazine-1-carboxamido)acetamido)-2-hydroxy-3,4-dihydro-2H-benzo[e][1,2]oxaborinine-8-carboxylic acid] | < 0.125 | 32 to 64 | 8 to 16 | 32 to 64 | 1 to 2 (≈ 1.73 to 3.45 µM) | – | 0.25 to 0.5 (≈ 0.432 to 0.863 µM) | < 30 | – |
| CCN1CCN(C(=O)N[C@H](C(=O)N[C@H]2Cc3ccc(F)c(C(=O)O)c3OB2O)c2ccc(O)c(O)c2Cl)C(=O)C1=O [Example 188, (R)-3-((S)-2-(2-chloro-3,4-dihydroxyphenyl)-2-(4-ethyl-2,3-dioxopiperazine-1-carboxamido)acetamido)-7-fluoro-2-hydroxy-3,4-dihydro-2H-benzo[e][1,2]oxaborinine-8-carboxylic acid] | 4 to 8 (≈ 6.75 to 13.5 µM) | 32 to 64 | > 128 | 32 to 64 | 16 to 32 (≈ 27 to 54 µM) | 30 to 500 | 4 to 8 (≈ 6.75 to 13.5 µM) | – | – |
| CCN1CCN(C(=O)N[C@@H](C(=O)N[C@H]2Cc3ccc(F)c(C(=O)O)c3OB2O)c2ccc(O)c(O)c2Cl)C(=O)C1=O [Example 189, (R)-3-((R)-2-(2-chloro-3,4-dihydroxyphenyl)-2-(4-ethyl-2,3-dioxopiperazine-1-carboxamido)acetamido)-7-fluoro-2-hydroxy-3,4-dihydro-2H-benzo[e][1,2]oxaborinine-8-carboxylic acid] | 0.25 to 0.5 (≈ 0.422 to 0.844 µM) | 2 to 4 | 0.5 to 1 | 0.5 to 1 | 1 to 2 (≈ 1.69 to 3.37 µM) | – | 0.25 to 0.5 (≈ 0.422 to 0.844 µM) | < 30 | – |
| CCN1CCN(C(=O)N[C@@H](C(=O)N[C@H]2Cc3cccc(C(=O)O)c3OB2O)c2ccc(O)c(O)c2Cl)C(=O)C1=O [Example 190, (R)-3-((R)-2-(2-chloro-3,4-dihydroxyphenyl)-2-(4-ethyl-2,3-dioxopiperazine-1-carboxamido)acetamido)-2-hydroxy-3,4-dihydro-2H-benzo[e][1,2]oxaborinine-8-carboxylic acid] | 0.25 to 0.5 (≈ 0.435 to 0.87 µM) | 2 to 4 | 0.5 to 1 | 2 to 4 | 4 to 8 (≈ 6.96 to 13.9 µM) | 30 to 500 | 0.25 to 0.5 (≈ 0.435 to 0.87 µM) | – | – |
| CCN1C[C@@H](C)N(C(=O)NC(C(=O)N[C@H]2Cc3cccc(C(=O)O)c3OB2O)c2ncc(O)cc2F)C(=O)C1=O (stereo partly drawn) [Example 191, (3R)-3-(2-((R)-4-ethyl-6-methyl-2,3-dioxopiperazine-1-carboxamido)-2-(3-fluoro-5-hydroxypyridin-2-yl)acetamido)-2-hydroxy-3,4-dihydro-2H-benzo[e][1,2]oxaborinine-8-carboxylic acid] | 1 to 2 (≈ 1.79 to 3.59 µM) | > 128 | > 128 | > 128 | 16 to 32 (≈ 28.7 to 57.4 µM) | 30 to 500 | 0.25 to 0.5 (≈ 0.449 to 0.897 µM) | – | – |
| CCN1CCN(C(=O)NC(C(=O)N[C@H]2Cc3ccc(F)c(C(=O)O)c3OB2O)c2ccc(O)c(O)c2Cl)C(O)C1=O (stereo partly drawn) [Example 194, (3R)-3-(2-(2-chloro-3,4-dihydroxyphenyl)-2-(4-ethyl-2-hydroxy-3-oxopiperazine-1-carboxamido)acetamido)-7-fluoro-2-hydroxy-3,4-dihydro-2H-benzo[e][1,2]oxaborinine-8-carboxylic acid] | 4 to 8 (≈ 6.73 to 13.5 µM) | – | 8 to 16 | 8 to 16 | 4 to 8 (≈ 6.73 to 13.5 µM) | 30 to 500 | 4 to 8 (≈ 6.73 to 13.5 µM) | – | 32 to 64 |
| NS(=O)(=O)c1ccc(C(NC(=O)N2CCN(CCF)C(=O)C2=O)C(=O)N[C@H]2Cc3cccc(C(=O)O)c3OB2O)c(F)c1 (stereo partly drawn) [Example 204, (3R)-3-(2-(2-fluoro-4-sulfamoylphenyl)-2-(4-(2-fluoroethyl)-2,3-dioxopiperazine-1-carboxamido)acetamido)-2-hydroxy-3,4-dihydro-2H-benzo[e][1,2]oxaborinine-8-carboxylic acid] | 0.25 to 0.5 (≈ 0.401 to 0.802 µM) | 32 to 64 | 32 to 64 | > 128 | 1 to 2 (≈ 1.6 to 3.21 µM) | – | 0.25 to 0.5 (≈ 0.401 to 0.802 µM) | < 30 | – |
| CCN1CCN(C(=O)NC(C(=O)N[C@H]2Cc3cccc(C(=O)O)c3OB2O)c2nc(N)sc2F)C(=O)C1=O (stereo partly drawn) [Example 205, (3R)-3-(2-(2-amino-5-fluorothiazol-4-yl)-2-(4-ethyl-2,3-dioxopiperazine-1-carboxamido)acetamido)-2-hydroxy-3,4-dihydro-2H-benzo[e][1,2]oxaborinine-8-carboxylic acid] | < 0.125 | 2 to 4 | > 128 | 32 to 64 | < 0.125 | – | < 0.125 | < 30 | – |
| CCN1C[C@H](C)N(C(=O)NC(C(=O)N[C@H]2Cc3ccc(F)c(C(=O)O)c3OB2O)c2ccc(O)c(O)c2Cl)C(=O)C1=O (stereo partly drawn) [Example 206, (3R)-3-(2-(2-chloro-3,4-dihydroxyphenyl)-2-((S)-4-ethyl-6-methyl-2,3-dioxopiperazine-1-carboxamido)acetamido)-7-fluoro-2-hydroxy-3,4-dihydro-2H-benzo[e][1,2]oxaborinine-8-carboxylic acid] | 0.25 to 0.5 (≈ 0.412 to 0.824 µM) | 2 to 4 | 2 to 4 | 2 to 4 | 4 to 8 (≈ 6.59 to 13.2 µM) | – | 0.25 to 0.5 (≈ 0.412 to 0.824 µM) | < 30 | – |
| CCN1C[C@H](C)N(C(=O)NC(C(=O)N[C@H]2Cc3ccc(F)c(C(=O)O)c3OB2O)c2ncc(O)cc2F)C(=O)C1=O (stereo partly drawn) [Example 208, (3R)-3-(2-((S)-4-ethyl-6-methyl-2,3-dioxopiperazine-1-carboxamido)-2-(3-fluoro-5-hydroxypyridin-2-yl)acetamido)-7-fluoro-2-hydroxy-3,4-dihydro-2H-benzo[e][1,2]oxaborinine-8-carboxylic acid] | < 0.125 | 8 to 16 | 8 to 16 | 32 to 64 | 4 to 8 (≈ 6.95 to 13.9 µM) | – | 0.25 to 0.5 (≈ 0.435 to 0.869 µM) | < 30 | – |
| CCN1CCN(C(=O)NC(C(=O)N[C@H]2Cc3cccc(C(=O)O)c3OB2O)c2ccc(S(N)(=O)=O)c(F)c2)C(=O)C1=O (stereo partly drawn) [Example 210, (3R)-3-(2-(4-ethyl-2,3-dioxopiperazine-1-carboxamido)-2-(3-fluoro-4-sulfamoylphenyl)acetamido)-2-hydroxy-3,4-dihydro-2H-benzo[e][1,2]oxaborinine-8-carboxylic acid] | < 0.125 | 8 to 16 | 32 to 64 | > 128 | 1 to 2 (≈ 1.65 to 3.3 µM) | 30 to 500 | < 0.125 | – | – |
| CCN1CCN(C(=O)NC(C(=O)N[C@H]2Cc3cccc(C(=O)O)c3OB2O)c2ccc(C(=O)O)cc2)C(=O)C1=O (stereo partly drawn) [Example 212, (3R)-3-(2-(4-carboxyphenyl)-2-(4-ethyl-2,3-dioxopiperazine-1-carboxamido)acetamido)-2-hydroxy-3,4-dihydro-2H-benzo[e][1,2]oxaborinine-8-carboxylic acid] | < 0.125 | – | 32 to 64 | > 128 | 0.25 to 0.5 (≈ 0.453 to 0.905 µM) | – | < 0.125 | < 30 | 32 to 64 |
